Data from patent publication US20240327429A1, “[1,3]Thiazolo[4,5-d]-pyrimidon-7-ones as inhibitors of NOX4” (Boehringer Ingelheim International GmbH, priority 2023, published 2024).
Several values for one entry are separate records, joined by “and”; a condition that tells them apart may be missing. Identical values can stand only once.

Experiments:
human NOX1 (hNOX1) = target: T1, human NOX1 (hNOX1) (Homo sapiens, UniProt Q9Y5S8); assay: NOX1 inhibition assay (L-012), HEK293 cells stably overexpressing human NOX1; format: cell-based; settings: HEK293-hNOX1, PMA stimulated
T1 construct: pLV-CMV-hNOX1-puro (NM_007052.5); host or cells: HEK293 (CLS GmbH), lentiviral transduction
T1 sequence (Q9Y5S8 1-564): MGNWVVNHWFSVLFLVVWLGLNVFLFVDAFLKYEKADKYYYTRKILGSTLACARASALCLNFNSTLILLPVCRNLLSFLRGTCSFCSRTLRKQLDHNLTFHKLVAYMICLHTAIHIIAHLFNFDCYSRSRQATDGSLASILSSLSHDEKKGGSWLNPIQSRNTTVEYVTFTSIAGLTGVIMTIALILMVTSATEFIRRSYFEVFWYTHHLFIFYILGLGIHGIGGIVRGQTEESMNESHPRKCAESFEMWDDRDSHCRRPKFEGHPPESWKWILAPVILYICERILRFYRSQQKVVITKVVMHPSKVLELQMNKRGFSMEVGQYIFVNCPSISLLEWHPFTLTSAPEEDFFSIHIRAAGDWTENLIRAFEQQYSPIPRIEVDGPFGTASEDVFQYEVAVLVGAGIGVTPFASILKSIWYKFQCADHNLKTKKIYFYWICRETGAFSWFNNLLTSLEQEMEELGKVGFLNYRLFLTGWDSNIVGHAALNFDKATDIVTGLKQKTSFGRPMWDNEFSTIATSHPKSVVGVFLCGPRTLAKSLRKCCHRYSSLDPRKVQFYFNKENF
T1 sequence (P13498 2-195 partner limits assumed): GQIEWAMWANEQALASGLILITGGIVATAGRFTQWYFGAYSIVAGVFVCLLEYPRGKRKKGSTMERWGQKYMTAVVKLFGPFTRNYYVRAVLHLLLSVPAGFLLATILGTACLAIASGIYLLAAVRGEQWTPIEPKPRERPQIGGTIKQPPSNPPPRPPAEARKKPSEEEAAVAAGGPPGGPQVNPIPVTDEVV
Excerpt: (§1) Plasmids are Purchased from Vectorbuilder. • for HEK-hNOX1 all necessary subunits are cloned accordingly: • pLV-CMV-hNOX1-puro (NM_007052.5) • pLV-CMV-hNOXO1-blas (NM_172168.3) • pLV-CMV-hp22phox-hygro (NM_000101.4) • pLV-CMV-hNOXA1-neo (NM_006647.2) • for HEK-hNOX3 • pLV-CMV-hNOX3-puro (NM_015718.3)
(§2) 3rd generation lentiviral particles are produced in HEK293 suspension cells by transient transfection of three helper and expression plasmids. Crucial lentivirus supernatants are harvested, clarified by filtration and concentrated by precipitation. Lentivirus titers are determined in transducing units in (TU/mL) by transduction of HT1080 cells and colony forming assay. Parental HEK293 cells, purchased from CLS GmbH, are transduced with replication-incompetent 3rd generation lentiviral particles (MOI 2) and expanded for at least 2 weeks before cryopreservation of tested lots. During cultivation, medium is changed three times per week and cells are sub-cultured at least once per week. Selection antibiotics are added according to the plasmids (1 μg/ml puromycin, 1.5 μg/ml blasticidin, 200 μg/ml G418 and 100 μg/ml hygromycin).
Evaluation of the NOX4 inhibitors on NOX1 activity is assessed in HEK293 cells stably overexpressing human NOX1 (hNOX1).
Lastly, 8-amino-5-chloro-2,3-dihydro-7-phenyl-pyrido[3,4-d]pyridazine-1,4-dione sodium salt (L-012, CAS 143556-24-5) is added at 400 μM to all wells, and cells are incubated in an incubator for an additional 3 h. Afterwards luminescence is measured with a SpectraMax Paradigm Microplate Reader.

human NOX3 (hNOX3) = target: T2, human NOX3 (hNOX3) (Homo sapiens, UniProt Q9HBY0); assay: NOX3 inhibition assay (L-012), HEK293 cells stably overexpressing human NOX3; format: cell-based; settings: HEK293-hNOX3, PMA stimulated
T2 construct: pLV-CMV-hNOX3-puro (NM_015718.3); host or cells: HEK293 (CLS GmbH), lentiviral transduction
T2 sequence (Q9HBY0 1-568): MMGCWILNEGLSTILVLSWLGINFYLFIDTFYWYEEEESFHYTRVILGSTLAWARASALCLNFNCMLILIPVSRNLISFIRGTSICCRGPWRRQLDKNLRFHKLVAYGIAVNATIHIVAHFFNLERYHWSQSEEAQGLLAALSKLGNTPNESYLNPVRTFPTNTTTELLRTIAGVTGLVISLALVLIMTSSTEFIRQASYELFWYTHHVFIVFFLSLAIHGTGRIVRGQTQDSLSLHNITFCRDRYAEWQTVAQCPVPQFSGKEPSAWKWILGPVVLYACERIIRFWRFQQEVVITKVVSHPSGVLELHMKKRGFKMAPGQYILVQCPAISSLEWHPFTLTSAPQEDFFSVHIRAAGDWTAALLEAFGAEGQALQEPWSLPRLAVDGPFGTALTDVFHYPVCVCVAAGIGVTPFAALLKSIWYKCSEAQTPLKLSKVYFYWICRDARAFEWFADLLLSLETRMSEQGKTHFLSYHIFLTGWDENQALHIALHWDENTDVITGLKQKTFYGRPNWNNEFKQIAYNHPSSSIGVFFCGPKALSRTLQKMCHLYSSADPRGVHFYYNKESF
T2 sequence (P13498 2-195 partner limits assumed): T1 sequence (P13498 2-195 partner limits assumed)
Excerpt: as §1, §2
Evaluation of the NOX4 inhibitors on NOX3 activity is assessed in HEK293 cells stably overexpressing human NOX3 (hNOX3).
Cells are seeded in 384 well plates for 2 days. […] Cells are then stimulated with PMA at 0.1 μM to induce NOX3-dependent ROS production. […] Luminescence is measured with an PHERAstar multimode reader.

human NOX4 (hNOX4) = target: T3, human NOX4 (hNOX4) (Homo sapiens, UniProt Q9NPH5); assay: cell-based
T3 sequence (Q9NPH5 1-578): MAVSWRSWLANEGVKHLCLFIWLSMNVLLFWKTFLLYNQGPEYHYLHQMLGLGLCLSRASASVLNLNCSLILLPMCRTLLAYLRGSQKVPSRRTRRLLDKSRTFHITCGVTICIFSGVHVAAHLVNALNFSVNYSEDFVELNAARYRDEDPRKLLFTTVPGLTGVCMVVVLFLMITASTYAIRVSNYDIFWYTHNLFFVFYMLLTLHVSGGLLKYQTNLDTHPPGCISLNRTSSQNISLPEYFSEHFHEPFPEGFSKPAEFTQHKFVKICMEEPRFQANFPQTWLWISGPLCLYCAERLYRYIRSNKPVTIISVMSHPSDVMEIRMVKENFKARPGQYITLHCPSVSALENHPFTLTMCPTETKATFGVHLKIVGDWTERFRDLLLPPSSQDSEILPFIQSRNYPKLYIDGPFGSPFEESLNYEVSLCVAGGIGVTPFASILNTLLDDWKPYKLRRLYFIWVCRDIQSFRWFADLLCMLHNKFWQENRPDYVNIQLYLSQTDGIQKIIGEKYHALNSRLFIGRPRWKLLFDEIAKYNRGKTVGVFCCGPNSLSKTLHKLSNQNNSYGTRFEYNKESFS
T3 sequence (P13498 2-195 partner limits assumed): T1 sequence (P13498 2-195 partner limits assumed)

SMILES	IC50 (human NOX1 (hNOX1)) [µM]	IC50 (human NOX3 (hNOX3)) [µM]	IC50 (human NOX4 (hNOX4))
Cc1cc(F)cc(C)c1CSc1nc2ncsc2c(=O)n1-c1cnc(O)c(F)c1 [Example 43]	> 100	> 100	0.063 µM
O=c1c2scnc2nc(SCc2ccc(C(F)(F)F)cc2F)n1-c1cc(F)c(O)c(F)c1 [Example 6]	> 100	> 100	0.087 µM
O=c1c2scnc2nc(SCc2ccc(Cl)cc2)n1-c1cc(F)c(O)c(F)c1 [Example 5]	0.3	> 100	0.024 µM
O=c1c2scnc2nc(SCc2c(F)cc(F)cc2F)n1-c1cc(F)c(O)cn1 [Example 20]	7	8.1	0.127 µM
O=c1c2scnc2nc(SCc2c(F)cc(F)cc2F)n1-c1ccc(O)cc1 [Example 15]	4.1	> 100	0.033 µM
O=c1c2scnc2nc(SCc2ccc(Cl)cc2)n1-c1ccc(O)nn1 [Example 64]	> 100	> 100	0.133 µM
O=c1c2scnc2nc(SCc2ccc(C(F)(F)F)cc2)n1-c1ccc(O)nc1 [Example 27]	76	86.8	0.135 µM
O=c1c2scnc2nc(SCc2ccc(C(F)(F)F)cc2)n1-c1cc(F)c(O)c(F)c1 [Example 7]	> 100	> 100	0.077 µM
Cc1cc(F)cc(C)c1CSc1nc2ncsc2c(=O)n1-c1cnc(O)nc1 [Example 55]	16.5	> 100	0.116 µM
Cc1cc(F)ccc1CSc1nc2ncsc2c(=O)n1-c1cnc(O)nc1 [Example 58]	11.8	> 100	0.14 µM
Cc1cc(F)ccc1CSc1nc2ncsc2c(=O)n1-c1ccc(O)nc1 [Example 29]	33.3	> 100	0.15 µM and 0.145 µM
O=c1c2scnc2nc(SCc2ccc(F)cc2Br)n1-c1cnc(O)c(F)c1 [Example 44]	43.2	73.1	0.063 µM
O=c1c2scnc2nc(SCc2c(F)cc(F)cc2F)n1-c1ccc(O)cc1F [Example 14]	2.3	25.5	0.038 µM
O=c1c2scnc2nc(SCc2ccc(F)cc2F)n1-c1cnc(O)c(F)c1 [Example 38]	> 100	> 100	0.048 µM
O=c1c2scnc2nc(SCc2ccc(Cl)cc2F)n1-c1ccc(O)nc1 [Example 22, 5-((4-Chloro-2-fluorobenzyl)thio)-6-(6-hydroxypyridin-3-yl)thiazolo[4,5-d]pyrimidin-7(6H)-one]	> 100	> 100	0.069 µM
O=c1c2scnc2nc(SCc2ccc(C(F)(F)F)cc2F)n1-c1ccc(O)nn1 [Example 65]	> 100	83.4	0.137 µM
O=c1c2scnc2nc(SCc2ccc(C(F)(F)F)cc2)n1-c1cnc(O)c(F)c1 [Example 32, 6-(5-Fluoro-6-hydroxypyridin-3-yl)-5-((4-(trifluoromethyl)benzyl)thio)thiazolo[4,5-d]pyrimidin-7(6H)-one]	> 100	38	0.04 µM
O=c1c2scnc2nc(SCc2ccc(Cl)cc2F)n1-c1ccc(O)nn1 [Example 61, 5-((4-Chloro-2-fluorobenzyl)thio)-6-(6-hydroxypyridazin-3-yl)thiazolo[4,5-d]pyrimidin-7(6H)-one]	> 100	28.2	0.103 µM
Cc1cc(F)cc(C)c1CSc1nc2ncsc2c(=O)n1-c1ccc(O)nc1 [Example 24]	20.6	> 100	0.098 µM
O=c1c2scnc2nc(SCc2ccc(Cl)cc2F)n1-c1cnc(O)nc1 [Example 53, 5-((4-Chloro-2-fluorobenzyl)thio)-6-(2-hydroxypyrimidin-5-yl)thiazolo[4,5-d]pyrimidin-7(6H)-one]	> 100	> 100	0.116 µM
O=c1c2scnc2nc(SCc2ccc(Br)cc2F)n1-c1cnc(O)c(F)c1 [Example 34]	14.7	63.6	0.029 µM
O=c1c2scnc2nc(SCc2ccc(Cl)cc2)n1-c1cnc(O)nc1 [Example 56]	2.7	> 100	0.153 µM
O=c1c2scnc2nc(SCc2ccc(Cl)cc2Cl)n1-c1cnc(O)c(F)c1 [Example 39]	24.5	56.2	0.056 µM
O=c1c2scnc2nc(SCc2ccc(C(F)(F)F)cc2F)n1-c1cnc(O)c(F)c1 [Example 42]	5.6	46.4	0.062 µM
O=c1c2scnc2nc(SCc2ccc(Cl)cc2)n1-c1cnc(O)c(F)c1 [Example 33]	35.5	> 100	0.029 µM
O=c1c2scnc2nc(SCc2c(F)cc(F)cc2F)n1-c1cnc(O)nc1 [Example 59]	21	> 100	0.206 µM
O=c1c2scnc2nc(SCc2c(F)cc(F)cc2F)n1-c1cnc(O)cc1F [Example 49, 6-(4-Fluoro-6-hydroxypyridin-3-yl)-5-((2,4,6-trifluorobenzyl)thio)thiazolo[4,5-d]pyrimidin-7(6H)-one]	> 100	> 100	0.045 µM
O=c1c2scnc2nc(SCc2ccc(Cl)cc2)n1-c1ccc(O)nc1 [Example 25]	> 100	> 100	0.1 µM and 0.101 µM
